Results: publication PMC5368959, “Uricosuric targets of tranilast” (Pharmacology Research & Perspectives, 2017)
Several values for one entry are separate records, joined by “and”; a condition that tells them apart may be missing. Equal entries are not always repeated. Where two headings read alike, the source gives them in different places.

Experiments:
Format in all cases: cell-based
GLUT9a = biological target: T1, GLUT9a (Homo sapiens, UniProt Q9NRM0); assay: [14C]-urate uptake by GLUT9a-expressing Xenopus oocytes; details: for IC50: 40 μmol/L urate, NaCl medium, read-out: IC50, GLUT9a-mediated [14C]-urate uptake
T1 sequence (Q9NRM0 1-540): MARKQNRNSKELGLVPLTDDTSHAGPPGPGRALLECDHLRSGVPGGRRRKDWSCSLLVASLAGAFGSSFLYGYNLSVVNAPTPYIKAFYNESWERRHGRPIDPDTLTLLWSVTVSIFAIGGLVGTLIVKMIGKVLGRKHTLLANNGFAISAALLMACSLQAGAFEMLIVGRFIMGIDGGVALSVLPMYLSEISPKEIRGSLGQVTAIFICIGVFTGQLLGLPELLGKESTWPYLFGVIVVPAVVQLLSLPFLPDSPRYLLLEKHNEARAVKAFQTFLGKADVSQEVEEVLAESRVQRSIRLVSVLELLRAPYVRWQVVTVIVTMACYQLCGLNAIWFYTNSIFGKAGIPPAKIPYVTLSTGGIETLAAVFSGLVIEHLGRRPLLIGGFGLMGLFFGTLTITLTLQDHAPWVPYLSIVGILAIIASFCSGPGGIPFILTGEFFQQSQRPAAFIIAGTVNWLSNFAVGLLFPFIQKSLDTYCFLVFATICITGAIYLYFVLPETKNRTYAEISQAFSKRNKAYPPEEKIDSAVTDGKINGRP
Text: (§1) For uptake experiments, oocytes were washed four times with ND96 medium (pH 7.4) without pyruvate and gentamycin.
We sought to investigate the effect of tranilast on GLUT9a‐mediated [^14C]‐urate uptake in Xenopus laevis oocytes.

NPT1 = biological target: T2, NPT1 (Homo sapiens, UniProt Q14916); assay: [14C]-urate uptake by NPT1-expressing Xenopus oocytes
T2 sequence (Q14916 1-467): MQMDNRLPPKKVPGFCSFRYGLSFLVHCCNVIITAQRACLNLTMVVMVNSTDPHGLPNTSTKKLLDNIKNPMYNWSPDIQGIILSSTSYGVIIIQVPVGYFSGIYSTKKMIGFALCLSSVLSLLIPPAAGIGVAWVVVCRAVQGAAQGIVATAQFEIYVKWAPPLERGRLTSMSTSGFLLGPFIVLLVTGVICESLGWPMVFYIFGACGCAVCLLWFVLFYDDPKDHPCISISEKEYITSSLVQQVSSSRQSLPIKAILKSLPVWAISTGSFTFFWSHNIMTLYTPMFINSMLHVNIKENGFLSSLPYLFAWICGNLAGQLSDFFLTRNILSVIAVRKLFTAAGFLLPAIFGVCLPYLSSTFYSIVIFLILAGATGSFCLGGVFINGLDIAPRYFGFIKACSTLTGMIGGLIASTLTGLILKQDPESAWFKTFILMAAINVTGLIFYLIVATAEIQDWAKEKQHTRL
Protocol: as §1
The uptake of [^14C]‐urate by NPT1‐expressing oocytes was performed in ND96 medium (pH 7.4) at ~25°C for 1 h. […] Data are mean ± S.E. with n = 12–15.

OAT3 = biological target: T3, OAT3 (Mus musculus, UniProt O88909); assay: [14C]-urate uptake by OAT3-expressing Xenopus oocytes
T3 sequence (O88909 1-537): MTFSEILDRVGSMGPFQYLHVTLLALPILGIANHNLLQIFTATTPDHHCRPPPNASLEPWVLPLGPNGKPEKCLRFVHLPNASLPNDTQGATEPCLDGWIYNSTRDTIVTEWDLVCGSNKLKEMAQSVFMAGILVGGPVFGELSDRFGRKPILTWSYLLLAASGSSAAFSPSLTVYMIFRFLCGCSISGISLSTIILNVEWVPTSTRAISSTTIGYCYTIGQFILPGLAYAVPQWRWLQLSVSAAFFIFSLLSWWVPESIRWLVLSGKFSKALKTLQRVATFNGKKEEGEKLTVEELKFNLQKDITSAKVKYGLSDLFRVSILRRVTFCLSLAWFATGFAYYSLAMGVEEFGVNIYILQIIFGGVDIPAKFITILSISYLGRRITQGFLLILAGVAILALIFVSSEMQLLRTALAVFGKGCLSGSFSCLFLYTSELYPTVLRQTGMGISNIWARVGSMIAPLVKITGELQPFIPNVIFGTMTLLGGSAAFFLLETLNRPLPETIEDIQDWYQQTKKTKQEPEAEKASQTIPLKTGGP
Protocol: as §1
The uptake of [^14C]‐urate (40 μmol/L) was performed in ND96 medium (pH 7.4) at ~25°C for 1 h.

SMCT1 = biological target: T4, SMCT1 (Homo sapiens, UniProt Q8N695); assay: [14C]-nicotinate uptake by SMCT1-expressing Xenopus oocytes; details: for IC50: data not shown, read-out: IC50, SMCT1-mediated [14C]-nicotinate uptake
T4 sequence (Q8N695 1-610): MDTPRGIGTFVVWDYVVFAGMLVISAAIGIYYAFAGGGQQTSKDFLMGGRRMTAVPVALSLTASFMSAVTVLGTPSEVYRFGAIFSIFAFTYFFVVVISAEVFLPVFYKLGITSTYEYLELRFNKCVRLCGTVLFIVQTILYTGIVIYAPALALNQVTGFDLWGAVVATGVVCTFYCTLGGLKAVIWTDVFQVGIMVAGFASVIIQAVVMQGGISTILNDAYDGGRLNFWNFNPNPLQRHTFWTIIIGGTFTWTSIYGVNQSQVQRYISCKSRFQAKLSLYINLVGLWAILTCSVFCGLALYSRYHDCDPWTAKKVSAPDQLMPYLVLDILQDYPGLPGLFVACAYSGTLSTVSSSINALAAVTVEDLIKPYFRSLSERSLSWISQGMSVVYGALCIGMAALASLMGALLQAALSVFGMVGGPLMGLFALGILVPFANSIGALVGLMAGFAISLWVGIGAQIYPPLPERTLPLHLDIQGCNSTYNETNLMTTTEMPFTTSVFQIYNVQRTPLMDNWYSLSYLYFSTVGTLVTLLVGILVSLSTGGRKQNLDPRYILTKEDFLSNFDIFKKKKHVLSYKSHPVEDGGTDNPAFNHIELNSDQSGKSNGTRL
Protocol: as §1
Chloride ion‐dependence was also assessed; in 0 Cl^− bath, NaCl was replaced by Na‐gluconate (Na‐Gluc), KCl by K‐gluconate (K‐Gluc), MgCl2 by Mg‐gluconate, and CaCl2 by Ca‐gluconate. […] Data are mean ± S.E. with n = 12–15.

Compound: CCc1oc2ccccc2c1C(=O)c1cc(Br)c(O)c(Br)c1 [benzbromarone]
- GLUT9a urate transport inhibition after washing and removal of inhibitor (GLUT9a): substantially inhibited
- Inhibition of GLUT9a urate uptake (GLUT9a): efficiently inhibited
- Reversibility of GLUT9a inhibition (GLUT9a): not reversible
- IC50 (GLUT9a): ~14.2 µM
- IC50 (NPT1): ~17.1 µM
- Inhibition of NPT1-mediated urate uptake (NPT1; drug 100 μmol/L): effectively inhibited
- Inhibition of OAT3-mediated urate uptake (OAT3; drug 100 μmol/L): effectively inhibited
- IC50 (SMCT1): ~49.6 µM

Compound: CCCN(CCC)S(=O)(=O)c1ccc(C(=O)O)cc1 [probenecid]
- inhibition at 1000 µM (GLUT9a; drug 1.0 mmol/L): ~60%
- Reversibility of GLUT9a inhibition (GLUT9a; washout in oocytes): not reversible
- Inhibition of NPT1-mediated urate uptake (NPT1; drug 1.0 mmol/L): only partially inhibited
- Inhibition of OAT3-mediated urate uptake (OAT3; drug 1.0 mmol/L): effectively inhibited
- Inhibition of SMCT1 nicotinate uptake (SMCT1; drug 1.0 mmol/L): significantly inhibited

Compound: COc1ccc(C=CC(=O)Nc2ccccc2C(=O)O)cc1OC [tranilast, N‐(3,4‐dimethoxycinnamoyl) anthranilic acid]
- GLUT9a urate transport inhibition after washing and removal of inhibitor (GLUT9a): almost no inhibition
- Inhibition of GLUT9a urate uptake (GLUT9a): efficiently inhibited
- Vmax of GLUT9a-mediated urate uptake (GLUT9a): 108.4 pmoles/oocyte/h and 61 pmoles/oocyte/h
- mode of inhibition of GLUT9a-mediated urate transport (GLUT9a): noncompetitive (mixed) inhibition
- IC50 (GLUT9a): ~15.6 µM
- Ki (GLUT9a; Eadie-Hofstee analysis, read-out: inhibition constant (Ki) for GLUT9a-mediated urate uptake): 17.1 ± 1.3 µM
- IC50 for GLUT9a under membrane depolarization (GLUT9a; depolarized vs polarized, data not shown): remained unchanged
- IC50 (NPT1; data not shown, read-out: IC50, [14C]-urate uptake by NPT1): ~18.9 µM
- Inhibition of NPT1-mediated urate uptake (NPT1; drug 100 μmol/L): effectively inhibited
- IC50 (OAT3; data not shown, read-out: IC50, OAT3-mediated urate uptake): ~15 µM
- Inhibition of OAT3-mediated urate uptake (OAT3; drug 50 μmol/L): effectively inhibited
- IC50 (SMCT1): ~1100 µM and > 185 µM
